Experimental data published in PubChem BioAssay (NCI).
Values joined by “and” are separate entries in the source; they are usually repeats but may differ in a detail not shown here. Identical values can stand only once.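 Interpolation was linear, between the two tested concentrations surrounding the appropriate level; five concentrations were tested over 48 hours in 96-well plates. GI50 is the concentration that inhibits growth by half. TGI is the concentration that stops growth completely.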

What was measured:
Test in all cases: DTP human tumour cell line panel, 48 h
[1] = tested on: 786-0 renal
[2] = tested on: A549 NSCLC
[3] = tested on: ACHN renal
[4] = tested on: BT-549 breast
[5] = tested on: CAKI-1 renal
[6] = tested on: CCRF-CEM leukemia
[7] = tested on: DU-145 prostate
[8] = tested on: EKVX NSCLC
[9] = tested on: HCT-116 colon
[10] = tested on: HCT-15 colon
[11] = tested on: HL-60(TB) leukemia
[12] = tested on: HOP-62 NSCLC
[13] = tested on: HOP-92 NSCLC
[14] = tested on: HT29 colon
[15] = tested on: IGROV1 ovarian
[16] = tested on: K-562 leukemia
[17] = tested on: KM12 colon
[18] = tested on: LOX IMVI melanoma
[19] = tested on: M14 melanoma
[20] = tested on: MCF7 breast
[21] = tested on: MDA-MB-435
[22] = tested on: MOLT-4 leukemia
[23] = tested on: NCI-H23 lung
[24] = tested on: NCI-H460 lung
[25] = tested on: NCI-H522 lung
[26] = tested on: NCI/ADR-RES ovarian
[27] = tested on: OVCAR-3 ovarian
[28] = tested on: OVCAR-5 ovarian
[29] = tested on: OVCAR-8 ovarian
[30] = tested on: PC-3 prostate
[31] = tested on: RPMI-8226 leukemia
[32] = tested on: RXF 393 renal
[33] = tested on: SF-268 CNS
[34] = tested on: SF-295 CNS
[35] = tested on: SK-MEL-2 melanoma
[36] = tested on: SK-MEL-28 melanoma
[37] = tested on: SK-MEL-5 melanoma
[38] = tested on: SK-OV-3 ovarian
[39] = tested on: SR leukemia
[40] = tested on: SW-620 colon
[41] = tested on: TK-10 renal
[42] = tested on: U251 CNS
[43] = tested on: UACC-257 melanoma
[44] = tested on: UO-31 renal
[45] = tested on: A498 renal
[46] = tested on: COLO 205 colon
[47] = tested on: HCC-2998 colon
[48] = tested on: MALME-3M melanoma
[49] = tested on: NCI-H226 lung
[50] = tested on: OVCAR-4 ovarian
[51] = tested on: SN12C renal
[52] = tested on: SNB-19 CNS
[53] = tested on: HS 578T breast
[54] = tested on: MDA-MB-231 breast
[55] = tested on: SF-539 CNS
[56] = tested on: SNB-75 CNS
[57] = tested on: UACC-62 melanoma
[58] = tested on: T-47D breast

Oc1ccc2oc3ncc(Br)c(-c4ccccc4)c3c2c1
GI50 [1]: > 100 µM
TGI [1]: > 100 µM
GI50 [2]: > 100 µM
TGI [2]: > 100 µM
GI50 [3]: > 100 µM
TGI [3]: > 100 µM
GI50 [4]: 76.9 µM
TGI [4]: > 100 µM
GI50 [5]: > 100 µM
TGI [5]: > 100 µM
GI50 [6]: > 100 µM
TGI [6]: > 100 µM
GI50 [7]: > 100 µM
TGI [7]: > 100 µM
GI50 [8]: > 100 µM
TGI [8]: > 100 µM
GI50 [9]: > 100 µM
TGI [9]: > 100 µM
GI50 [10]: > 100 µM
TGI [10]: > 100 µM
GI50 [11]: > 100 µM
TGI [11]: > 100 µM
GI50 [12]: > 100 µM
TGI [12]: > 100 µM
GI50 [13]: > 100 µM
TGI [13]: > 100 µM
GI50 [14]: > 100 µM
TGI [14]: > 100 µM
GI50 [15]: > 100 µM
TGI [15]: > 100 µM
GI50 [16]: > 100 µM
TGI [16]: > 100 µM
GI50 [17]: > 100 µM
TGI [17]: > 100 µM
GI50 [18]: > 100 µM
TGI [18]: > 100 µM
GI50 [19]: > 100 µM
TGI [19]: > 100 µM
GI50 [20]: > 100 µM
TGI [20]: > 100 µM
GI50 [21]: > 100 µM
TGI [21]: > 100 µM
GI50 [22]: > 100 µM
TGI [22]: > 100 µM
GI50 [23]: > 100 µM
TGI [23]: > 100 µM
GI50 [24]: > 100 µM
TGI [24]: > 100 µM
GI50 [25]: > 100 µM
TGI [25]: > 100 µM
GI50 [26]: > 100 µM
TGI [26]: > 100 µM
GI50 [27]: > 100 µM
TGI [27]: > 100 µM
GI50 [28]: > 100 µM
TGI [28]: > 100 µM
GI50 [29]: > 100 µM
TGI [29]: > 100 µM
GI50 [30]: > 100 µM
TGI [30]: > 100 µM
GI50 [31]: > 100 µM
TGI [31]: > 100 µM
GI50 [32]: > 100 µM
TGI [32]: > 100 µM
GI50 [33]: > 100 µM
TGI [33]: > 100 µM
GI50 [34]: > 100 µM
TGI [34]: > 100 µM
GI50 [35]: > 100 µM
TGI [35]: > 100 µM
GI50 [36]: > 100 µM
TGI [36]: > 100 µM
GI50 [37]: > 100 µM
TGI [37]: > 100 µM
GI50 [38]: > 100 µM
TGI [38]: > 100 µM
GI50 [39]: 30.4 µM
TGI [39]: > 100 µM
GI50 [40]: > 100 µM
TGI [40]: > 100 µM
GI50 [41]: > 100 µM
TGI [41]: > 100 µM
GI50 [42]: > 100 µM
TGI [42]: > 100 µM
GI50 [43]: > 100 µM
TGI [43]: > 100 µM
GI50 [44]: > 100 µM
TGI [44]: > 100 µM

CC(=O)Nc1ccc(/C=C/C(=O)N2CC(CCl)c3c2cc(N)c2ccccc32)cc1 (stereo unspecified)
TGI [1]: 0.0124 µM
TGI [45]: 0.00609 µM
TGI [4]: 0.0326 µM and 0.0218 µM
TGI [6]: 50 µM
TGI [46]: 0.0362 µM
TGI [7]: 0.135 µM
TGI [8]: 0.0576 µM
TGI [47]: 0.0427 µM and 0.129 µM
TGI [9]: 0.14 µM
TGI [10]: 50 µM
TGI [12]: 0.0145 µM
TGI [13]: 0.00989 µM
TGI [14]: 0.0384 µM
TGI [15]: 0.614 µM
TGI [16]: 50 µM
TGI [17]: 50 µM and > 100 µM
TGI [18]: 0.097 µM
TGI [19]: 0.00795 µM
TGI [48]: 0.00756 µM
TGI [20]: 50 µM and > 100 µM
TGI [22]: 50 µM
TGI [49]: 0.0292 µM
TGI [25]: 0.00671 µM
TGI [27]: 5.56 µM
TGI [50]: 9.18 µM
TGI [29]: 0.0741 µM
TGI [31]: 50 µM
TGI [33]: 0.0208 µM
TGI [34]: 38.5 µM
TGI [37]: 0.00589 µM
TGI [38]: 0.573 µM and 0.3 µM
TGI [51]: 0.0072 µM
TGI [52]: 0.0269 µM and 0.111 µM
TGI [39]: 50 µM
TGI [40]: 0.509 µM
TGI [41]: 18.7 µM

OC(c1cc(C23CC4CC(CC(C4)C2)C3)nc2c(Cl)cc(Cl)cc12)C1CCCCN1 (stereo unspecified)
TGI [1]: 3.21 µM
TGI [45]: 3.05 µM
TGI [2]: 3.08 µM
TGI [3]: 2.94 µM
TGI [5]: 3.24 µM
TGI [7]: 3.29 µM
TGI [8]: 3.59 µM
TGI [9]: 2.7 µM
TGI [11]: 3.59 µM
TGI [12]: 2.97 µM
TGI [13]: 2.67 µM
TGI [53]: 3.89 µM
TGI [14]: 3.04 µM
TGI [15]: 3.45 µM
TGI [16]: 3.07 µM
TGI [17]: 3.07 µM
TGI [19]: 3.13 µM
TGI [48]: 3.71 µM
TGI [20]: 2.9 µM
TGI [54]: 2.78 µM
TGI [22]: 3.57 µM
TGI [49]: 3.77 µM
TGI [24]: 3.13 µM
TGI [25]: 3.33 µM
TGI [27]: 3.3 µM
TGI [28]: 3.17 µM
TGI [29]: 3.18 µM
TGI [30]: 3.09 µM
TGI [32]: 3.07 µM
TGI [33]: 3.25 µM
TGI [34]: 3.76 µM
TGI [55]: 3.22 µM
TGI [35]: 3.46 µM
TGI [51]: 3.13 µM
TGI [56]: 2.96 µM
TGI [39]: 2.84 µM
TGI [41]: 3.23 µM
TGI [42]: 3 µM
TGI [43]: 3.53 µM
TGI [57]: 3.16 µM
TGI [44]: 2.35 µM

C/C(=C\c1csc(C)n1)[C@@H]1C[C@@H]2O[C@]2(C)CCC[C@H](C)[C@H](O)[C@@H](C)C(=O)C(C)(C)[C@@H](O)CC(=O)O1
TGI [1]: > 100 µM
TGI [45]: 0.116 µM
TGI [2]: > 100 µM
TGI [3]: > 100 µM
TGI [46]: < 0.0001 µM
TGI [7]: 0.000139 µM
TGI [8]: > 100 µM
TGI [47]: < 0.0001 µM
TGI [9]: > 100 µM
TGI [10]: 0.00447 µM
TGI [11]: < 0.0001 µM
TGI [13]: 0.0263 µM
TGI [14]: < 0.0001 µM
TGI [15]: > 100 µM
TGI [16]: 0.274 µM
TGI [48]: > 100 µM
TGI [20]: 0.0112 µM
TGI [24]: > 100 µM
TGI [25]: < 0.0001 µM
GI50 [50]: 60.1 µM
TGI [50]: > 100 µM
TGI [28]: > 100 µM
TGI [30]: > 100 µM
TGI [32]: 0.00418 µM
TGI [34]: < 0.0001 µM
TGI [55]: < 0.0001 µM
TGI [35]: 33.7 µM
TGI [51]: > 100 µM
TGI [52]: > 100 µM
TGI [56]: < 0.0001 µM
TGI [39]: < 0.0001 µM
TGI [40]: 16.1 µM
TGI [58]: > 100 µM
TGI [41]: 44.8 µM

Cc1cc(S(=O)(=O)[O-])ccc1-n1nc(C)[c-](N=Nc2cc(S(=O)(=O)[O-])ccc2C(=O)[O-])c1=O.[Cr+3].[Na+].[OH-] (stereo unspecified)
GI50 [6]: 0.468 µM
GI50 [11]: 28.3 µM
